US9181248B2, “[1,2,4]triazolopyridines and their use as phosphodiesterase inhibitors” (LEO Pharma A/S, priority 2011, dated 2015)

Legend:
[1] = Keratinocyte stability (KC) assay; format: in vitro ADME; details: pH 7.4; plated human keratinocytes, 1 μM compound, 37° C.; average of 2 to 4 tests; read-out: KC assay, half-life T½
Experimental: Incubations of test compounds in DMSO, diluted with growing medium, pH ˜7.4, at 1 μM were carried out with plated human keratinocytes. The percentage of organic solvent in the incubations was 0.5%. The incubations were performed at 37° C. with aliquots taken at 0, 60, 120, 240 and 1440 minutes, and reactions were terminated by addition of methanol containing analytical internal standard (IS). The results were expressed as half-life (T½) in minutes calculated from the rate constant (k) (min^−1) of test compound depletion.

[2] = tested on: TNF-α release in human peripheral blood mononuclear cells (PBMC); experiment: TNF-α release; details: 18 h, read-out: TNF-α release assay, IC50
Text: Results are expressed as IC50 values (nM) calculated from inhibition curves using as positive controls the secretion in LPS stimulated wells and as negative controls the secretion in unstimulated cells.

[3] = Human whole blood (WB) assay; format: in vitro ADME; details: pH 7.4, 1 μM compound, 37° C., average of 2 to 4 tests, read-out: WB assay, half-life T½
Experimental: Incubations of test compounds in DMSO, diluted with phosphate buffer, pH 7.4, at 1 μM were carried out with human whole blood. The percentage of organic solvent in the incubations was 1%. The incubations were performed at 37° C. with aliquots taken at 0, 15, 30, 60 and 120 minutes, and reactions were terminated by addition of methanol containing analytical internal standard (IS). The results were expressed as half-life (T½) in minutes calculated from the rate constant (k) (min^−1) of test compound depletion.

Compound	half-life at 1 μM [1]	IC50 [2]	half-life at 1 μM [3]
CC[C@@H](C)OC(=O)C1(c2nc3c(OC)ccc(-c4ccc5c(c4)COC5=O)n3n2)CC1 [Compound 2, [(1R)-1-Methylpropyl]1-[8-methoxy-5-(1-oxo-3H-isobenzofuran-5-yl)-[1,2,4]triazolo-[1,5-a]pyridin-2-yl]cyclopropanecarboxylate]	> 720 min	0.0157 µM	12.6 min
CC[C@H](C)OC(=O)C1(c2nc3c(OC)ccc(-c4ccc5c(c4)COC5=O)n3n2)CC1 [Compound 1, [(1S)-1-Methylpropyl]1-[8-methoxy-5-(1-oxo-3H-isobenzofuran-5-yl)-[1,2,4]triazolo-[1,5-a]pyridin-2-yl]cyclopropanecarboxylate]	> 720 min	0.0128 µM	10.7 min
COc1ccc(-c2ccc3c(c2)COC3=O)n2nc(C3(C(=O)OC(C)(C)C)CC3)nc12 [Compound 4, Tert-butyl 1-[8-methoxy-5-(1-oxo-3H-isobenzofuran-5-yl)-[1,2,4]triazolo[1,5-a]pyridin-2-yl]cyclopropanecarboxylate]	> 720 min	0.0153 µM	< 11.2 min
COc1ccc(-c2ccc3c(c2)COC3=O)n2nc(C3(C(=O)OCC(C)C)CC3)nc12 [Compound 3, [2-Methylpropyl]1-[8-methoxy-5-(1-oxo-3H-isobenzofuran-5-yl)-[1,2,4]triazolo[1,5-a]pyridin-2-yl]cyclopropanecarboxylate]	> 720 min	–	16.6 min
